What was measured:
Kuramochi cell line = experiment: Cell Viability Assay (Cell Titer-Glo, 7 days); assay type: cell-based; settings: 168 h, Kuramochi cells, 7 days incubation, read-out: PARG Cell viability (IC50)
Description: Cell viability studies were conducted in Kuramochi cell line. Cells were maintained in RPMI (Hyclone, Catalog #: SH3080901B) supplemented with 10% v/v FBS (AusGeneX, Catalog #: FBS500-S), 1% v/v Penicillin Streptomycin (Gibco, Catalog #: 15140122). Cells were seeded in 96-well plates (PerkinElmer, Catalog #: 6005680) at a density of 400 cells/well. Compounds dissolved in DMSO were plated in duplicate using a multichannel pipette, and tested on a 9-point 3-fold serial dilution. Cells were incubated for 7 days in a 37° C. active humidified incubator at 5% CO2. Cell viability was measured using the Cell Titer-Glo reagent (Promega, Catalog #: G7573) as manufacturer's instructions. Luminescence signal was measured with a multimode plate reader (Perkin Elmer, Envision 2105 or BMG, ClarioStar Plus). Average values of DMSO treated wells in a plate was calculated and as high control (HC). Average values of only medium in a plate was calculated and as low control (LC)
(§1) IC50 values were determined by fitting the data to the standard 4 parameters with Hill Slope using GraphPad Prism software.

[1] = target: hPARG (C-terminal His6-tag) (Homo sapiens (Human), UniProt Q86W56); experiment: PARG Enzymatic Activity Assay (HTRF); assay type: biochemical; settings: hPARG 65 pM final, biotinylated-NAD ribosylated PARP1 8 nM final
Description: PARG Enzymatic Activity Assay HTRF assay was used to measure the ability of compounds to inhibit the activity of PARG in vitro. C-terminal His6-tag PARG expressed in E. coli was purified and stored at −80° C. in aliquots. Assay measurements were performed with 1×buffer comprising 50 mM Tris pH 7.4, 0.1 mg/mL BSA, 3 mM EDTA, 0.4 mM EGTA, 1 mM DTT, 50 mM KCl and 0.01% Tween 20.
Compounds dissolved in DMSO were plated into a 384-well assay plate (PerkinElmer, Catalog #: 6008280) in duplicate using a dispenser (Labcyte, Echo 665), and tested on a 10-point 4-fold serial dilution. Add 5 L Enzyme mix [hPARG (C-terminal His6-tag, 4.2 μM), 65 pM final] to the test wells. The plates were covered and left to incubate for 60 minutes at RT before the addition of 5 L substrate mix [biotinylated-NAD ribosylated PARP1 (6.1 μM), 8 nM final] to initiate reaction. After incubating 10 minutes at RT, add 2.5 L Streptavidin-Eu cryptate (Cisbio, Catalog #: 610SAKLA) and 2.5 L Mab anti 6HIS-XL665 (Cisbio, Catalog #: 61HISXLA) to the plate, and incubate for 60 minutes at RT. Read on a multimode plate reader (PerkinElmer, Envision 2015) in time-resolved fluorescence (TRF) mode, with excitation at 337 nm and emission at both 620 nm and 665 nm. Average HTRF signal of high control (Wells with 1% DMSO) was calculated and as Vehicle Control (VC). Average HTRF signal of low control (no Enzyme) was calculated and as Positive control (PC).
as §1

Chain of hPARG (C-terminal His6-tag) (Q86W56 whole entry): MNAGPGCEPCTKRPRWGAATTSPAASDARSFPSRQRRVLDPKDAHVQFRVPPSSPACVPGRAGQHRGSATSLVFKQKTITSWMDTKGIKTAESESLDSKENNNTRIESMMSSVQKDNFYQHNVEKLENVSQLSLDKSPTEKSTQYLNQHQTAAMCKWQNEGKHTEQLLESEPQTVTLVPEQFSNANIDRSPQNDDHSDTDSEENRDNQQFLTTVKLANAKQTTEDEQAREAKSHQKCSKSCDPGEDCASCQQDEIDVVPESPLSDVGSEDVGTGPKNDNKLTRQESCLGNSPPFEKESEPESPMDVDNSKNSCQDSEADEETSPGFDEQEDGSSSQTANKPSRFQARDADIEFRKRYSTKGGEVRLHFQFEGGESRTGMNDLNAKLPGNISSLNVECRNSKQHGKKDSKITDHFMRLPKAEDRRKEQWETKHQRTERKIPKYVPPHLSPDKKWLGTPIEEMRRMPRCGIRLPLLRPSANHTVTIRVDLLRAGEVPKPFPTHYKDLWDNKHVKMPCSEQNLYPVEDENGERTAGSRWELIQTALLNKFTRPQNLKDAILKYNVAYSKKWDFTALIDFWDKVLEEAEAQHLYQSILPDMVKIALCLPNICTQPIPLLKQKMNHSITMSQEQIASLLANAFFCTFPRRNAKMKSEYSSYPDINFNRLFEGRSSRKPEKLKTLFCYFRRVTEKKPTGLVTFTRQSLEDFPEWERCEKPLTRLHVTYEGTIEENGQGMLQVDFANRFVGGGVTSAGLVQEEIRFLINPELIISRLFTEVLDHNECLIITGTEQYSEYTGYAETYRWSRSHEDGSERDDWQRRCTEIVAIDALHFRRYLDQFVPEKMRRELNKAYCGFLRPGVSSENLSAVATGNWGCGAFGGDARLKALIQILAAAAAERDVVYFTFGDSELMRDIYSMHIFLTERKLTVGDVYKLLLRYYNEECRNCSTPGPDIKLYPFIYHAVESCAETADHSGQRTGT

| Compound | IC50 (Kuramochi cell line) [nM] | IC50 [1] [nM] |
| --- | --- | --- |
| COC(C)(C)C(=O)N1CCC(c2ncnc3c2c2ccc(S(=O)(=O)NC4(C#N)CC4)cc2n3-c2nnc(C(F)F)s2)CC1 [Example 119, N-(1-cyanocyclopropyl)-9-(5-(difluoromethyl)-1,3,4-thiadiazol-2-yl)-4-(1-(2-methoxy-2-methylpropanoyl)piperidin-4-yl)-9H-pyrimido[4,5-b]indole-7-sulfonamide] | < 100 | < 100 |
| CC(C)C(=O)N1CC=C(c2ncnc3c2c2ccc(S(=O)(=O)NC4(C#N)CC4)cc2n3-c2nnc(C(F)F)s2)CC1 [Example 74, N-(1-Cyanocyclopropyl)-9-(5-(difluoromethyl)-1,3,4-thiadiazol-2-yl)-4-(1-isobutyryl-1,2,3,6-tetrahydropyridin-4-yl)-9H-pyrimido[4,5-b]indole-7-sulfonamide] | < 100 | < 100 |
| N#CC1(NS(=O)(=O)c2ccc3c4c(C5CCN(C(=O)[C@H]6CCOC6)CC5)ncnc4n(-c4nnc(C(F)F)s4)c3c2)CC1 [Example 115, (S)-N-(1-cyanocyclopropyl)-9-(5-(difluoromethyl)-1,3,4-thiadiazol-2-yl)-4-(1-(tetrahydrofuran-3-carbonyl)piperidin-4-yl)-9H-pyrimido[4,5-b]indole-7-sulfonamide] | < 100 | < 100 |
| COC1CCN(c2ncnc3c2c2ccc(S(=O)(=O)NC4(C#N)CC4)cc2n3-c2nnc(C(F)F)s2)CC1 [Example 44, N-(1-Cyanocyclopropyl)-9-(5-(difluoromethyl)-1,3,4-thiadiazol-2-yl)-4-(4-methoxypiperidin-1-yl)-9H-pyrimido[4,5-b]indole-7-sulfonamide] | < 100 | < 100 |
| CC(C)C(=O)N1C2CCC1CN(c1ncnc3c1c1ccc(S(=O)(=O)NC4(C#N)CC4)cc1n3-c1nnc(C(F)F)s1)C2 [Example 24, N-(1-Cyanocyclopropyl)-9-[5-(difluoromethyl)-1,3,4-thiadiazol-2-yl]-4-[8-(2-methylpropanoyl)-3,8-diazabicyclo[3.2.1]octan-3-yl]pyrimido[4,5-b]indole-7-sulfonamide] | 100 to 1000 | < 100 |
| Cc1nnc(-n2c3cc(S(=O)(=O)NC4(C#N)CC4)ccc3c3c(N4CCN(C(=O)C5CC5)CC4)ncnc32)s1 [Example 185, N-(1-Cyanocyclopropyl)-4-(4-(cyclopropanecarbonyl)piperazin-1-yl)-9-(5-methyl-1,3,4-thiadiazol-2-yl)-9H-pyrimido[4,5-b]indole-7-sulfonamide] | 100 to 1000 | 100 to 1000 |
| N#CC1(NS(=O)(=O)c2ccc3c4c(C5CCN(C(=O)[C@@H]6CCCO6)CC5)ncnc4n(-c4nnc(C(F)F)s4)c3c2)CC1 [Example 111, (S)-N-(1-cyanocyclopropyl)-9-(5-(difluoromethyl)-1,3,4-thiadiazol-2-yl)-4-(1-(tetrahydrofuran-2-carbonyl)piperidin-4-yl)-9H-pyrimido[4,5-b]indole-7-sulfonamide] | < 100 | < 100 |
| N#CC1(NS(=O)(=O)c2ccc3c4c(N5CCN(CC6CC6)C(=O)C5)ncnc4n(-c4nnc(C(F)F)s4)c3c2)CC1 [Example 40, N-(1-Cyanocyclopropyl)-4-(4-(cyclopropylmethyl)-3-oxopiperazin-1-yl)-9-(5-(difluoromethyl)-1,3,4-thiadiazol-2-yl)-9H-pyrimido[4,5-b]indole-7-sulfonamide] | < 100 | < 100 |
| CCN1CCN(c2ncnc3c2c2ccc(S(=O)(=O)NC4(C#N)CC4)cc2n3-c2nnc(C(F)F)s2)CC1=O [Example 155, N-(1-cyanocyclopropyl)-9-(5-(difluoromethyl)-1,3,4-thiadiazol-2-yl)-4-(4-ethyl-3-oxopiperazin-1-yl)-9H-pyrimido[4,5-b]indole-7-sulfonamide] | < 100 | < 100 |
| CC(C)C(=O)N1CCC(c2ncnc3c2c2ccc(S(=O)(=O)NC4(C#N)CC4)cc2n3-c2nnc(C(F)F)s2)C[C@@H]1C (stereo partly drawn) [Example 151, N-(1-Cyanocyclopropyl)-9-(5-(difluoromethyl)-1,3,4-thiadiazol-2-yl)-4-((2S)-1-isobutyryl-2-methylpiperidin-4-yl)-9H-pyrimido[4,5-b]indole-7-sulfonamide] | < 100 | < 100 |
| C[C@H]1CN(c2ncnc3c2c2ccc(S(=O)(=O)NC4(C#N)CC4)cc2n3-c2nnc(C(F)F)s2)CCO1 [Example 50, (S)-N-(1-Cyanocyclopropyl)-9-(5-(difluoromethyl)-1,3,4-thiadiazol-2-yl)-4-(2-methylmorpholino)-9H-pyrimido[4,5-b]indole-7-sulfonamide] | < 100 | < 100 |
| CC(C)C(=O)N1C=CC(c2ncnc3c2c2cc(F)c(S(=O)(=O)NC4(C#N)CC4)cc2n3-c2nnc(C(F)F)s2)CC1 (stereo not drawn) [Example 92, N-(1-Cyanocyclopropyl)-9-(5-(difluoromethyl)-1,3,4-thiadiazol-2-yl)-6-fluoro-4-(1-isobutyryl-1,2,3,4-tetrahydropyridin-4-yl)-9H-pyrimido[4,5-b]indole-7-sulfonamide] | < 100 | < 100 |
| CC(O)CN(C)C(=O)N1CCC(c2ncnc3c2c2ccc(S(=O)(=O)NC4(C#N)CC4)cc2n3-c2nnc(C(F)F)s2)CC1 (stereo not drawn) [Example 142, 4-(7-(N-(1-cyanocyclo-propyl)sulfamoyl)-9-(5-(difluoromethyl)-1,3,4-thiadiazol-2-yl)-9H-pyrimido[4,5-b]indol-4-yl)-N-(2-hydroxypropyl)-N-methylpiperidine-1-carboxamide] | < 100 | < 100 |
| N#CC1(NS(=O)(=O)c2ccc3c4c(C5CCNCC5)ncnc4n(-c4nnc(C(F)F)s4)c3c2)CC1 [Example 87, N-(1-Cyanocyclopropyl)-9-(5-(difluoromethyl)-1,3,4-thiadiazol-2-yl)-4-(piperidin-4-yl)-9H-pyrimido[4,5-b]indole-7-sulfonamide] | 100 to 1000 | < 100 |
| C[C@@H]1COCCN1c1ncnc2c1c1ccc(S(=O)(=O)NC3(C#N)CC3)cc1n2-c1nnc(C(F)F)s1 [Example 199, (R)—N-(1-Cyanocyclopropyl)-9-(5-(difluoromethyl)-1,3,4-thiadiazol-2-yl)-4-(3-methylmorpholino)-9H-pyrimido[4,5-b]indole-7-sulfonamide] | < 100 | < 100 |
| CC1(NS(=O)(=O)c2ccc3c4c(C5CCN(C(=O)N6CC[C@@H](O)C6)CC5)ncnc4n(-c4nnc(C(F)F)s4)c3c2)CC1 [Example 132, (R)-9-(5-(Difluoromethyl)-1,3,4-thiadiazol-2-yl)-4-(1-(3-hydroxypyrrolidine-1-carbonyl)piperidin-4-yl)-N-(1-methylcyclopropyl)-9H-pyrimido[4,5-b]indole-7-sulfonamide] | < 100 | < 100 |
| C[C@@H]1CN(C(=O)N(C)C)[C@@H](C)CN1c1ncnc2c1c1ccc(S(=O)(=O)NC3(C#N)CC3)cc1n2-c1nnc(C(F)F)s1 [Example 59, (2S,5R)-4-(7-(N-(1-Cyanocyclopropyl)sulfamoyl)-9-(5-(difluoromethyl)-1,3,4-thiadiazol-2-yl)-9H-pyrimido[4,5-b]indol-4-yl)-N,N,2,5-tetramethylpiperazine-1-carboxamide] | < 100 | < 100 |
| N#CC1(NS(=O)(=O)c2ccc3c4c(N5CCN(C(=O)c6ccccn6)CC5)ncnc4n(-c4nnc(C(F)F)s4)c3c2)CC1 [Example 14, N-(1-Cyanocyclopropyl)-9-(5-(difluoromethyl)-1,3,4-thiadiazol-2-yl)-4-(4-picolinoylpiperazin-1-yl)-9H-pyrimido[4,5-b]indole-7-sulfonamide] | < 100 |  |
| CC(C)C(=O)N1C[C@H]2CC[C@@H]1CN2c1ncnc2c1c1ccc(S(=O)(=O)NC3(C#N)CC3)cc1n2-c1nnc(C(F)F)s1 [Example 32, N-(1-Cyanocyclopropyl)-9-(5-(difluoromethyl)-1,3,4-thiadiazol-2-yl)-4-((1R,4R)-5-isobutyryl-2,5-diazabicyclo[2.2.2]octan-2-yl)-9H-pyrimido[4,5-b]indole-7-sulfonamide] | 100 to 1000 |  |
